Measurements: patent publication US9169254B2, “Spiroimidazolone derivative” (Chugai Seiyaku Kabushiki Kaisha, priority 2009, dated 2015)

target: T1, human PTH1 receptor (Homo sapiens, UniProt Q03431); test: In vitro cAMP signal activity in HKRK-B7 cells (LLC-PK1 cells overexpressing the human PTH1 receptor); type: cell-based; details: HKRK-B7 cells; compound at 1×10^−3 M; […]; 0.1 µM
T1 sequence (Q03431 27-593): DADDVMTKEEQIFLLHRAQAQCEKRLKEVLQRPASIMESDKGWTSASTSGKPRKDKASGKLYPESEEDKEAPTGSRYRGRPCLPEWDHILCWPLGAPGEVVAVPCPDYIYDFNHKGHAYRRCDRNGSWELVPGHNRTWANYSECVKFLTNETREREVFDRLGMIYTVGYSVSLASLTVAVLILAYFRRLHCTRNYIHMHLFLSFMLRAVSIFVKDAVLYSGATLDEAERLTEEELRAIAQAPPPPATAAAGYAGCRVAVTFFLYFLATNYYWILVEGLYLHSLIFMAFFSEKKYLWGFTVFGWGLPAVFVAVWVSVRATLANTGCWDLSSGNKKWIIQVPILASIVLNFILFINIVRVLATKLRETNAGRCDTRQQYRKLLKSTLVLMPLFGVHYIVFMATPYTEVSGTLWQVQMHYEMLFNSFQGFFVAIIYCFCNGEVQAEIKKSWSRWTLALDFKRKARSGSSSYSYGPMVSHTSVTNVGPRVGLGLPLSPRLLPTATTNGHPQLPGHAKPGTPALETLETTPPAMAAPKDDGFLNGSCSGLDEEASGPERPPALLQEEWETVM

Structure (SMILES)	cAMP production activity (%)
O=C(Nc1ccccc1)c1ccccc1S(=O)(=O)N1CCC2(CC1)N=C(C1CCCCC1)NC2=O [Compound 957, 2-(2-Cyclohexyl-4-oxo-1,3,8-triaza-spiro[4.5]dec-1-ene-8-sulfonyl)-N-phenyl-benzamide]	17
Cc1cc(C(=O)N2CCC(=O)CC2)cc(C)c1/C=C/S(=O)(=O)N1CCC2(CC1)N=C(c1ccc(F)c(C(F)(F)F)c1)NC2=O [Compound 972, 8-{(E)-2-[2,6-dimethyl-4-(4-oxo-piperidine-1-carbonyl)-phenyl]-ethenesulfonyl}-2-(4-fluoro-3-trifluoromethyl-phenyl)-1,3,8-triaza-spiro[4.5]dec-1-en-4-one]	89
Cc1cc(C(=O)N2CCC(F)(CO)CC2)ccc1CCS(=O)(=O)N1CCC2(CC1)N=C([C@H]1CC[C@H](CC=C(F)F)CC1)NC2=O [Compound 973, 2-[4-(3,3-Difluoro-allyl)-cyclohexyl]-8-{2-[4-(4-fluoro-4-hydroxymethyl-piperidine-1-carbonyl)-2-methyl-phenyl}-ethanesulfonyl]-1,3,8-triaza-spiro[4.5]dec-1-en-4-one]	112

same assay, conditions: HKRK-B7 cells; compound at 1×10^−3 M; cAMP produced as percentage of that produced by hPTH(1-34) at 100 nM

Structure (SMILES)	cAMP production activity (%)
Cc1cc(N2C(=O)CNC2=O)ccc1CCS(=O)(=O)N1CCC2(CC1)N=C(C1CCC(CCC(F)F)CC1)NC2=O (centres unmarked) [Compound 956, 3-[4-(2-{2-[4-(3,3-difluoro-propyl)-cyclohexyl]-4-oxo-1,3,8-triaza-spiro[4.5]dec-1-ene-8-sulfonyl}-ethyl)-3-methyl-phenyl]-imidazolidine-2,4-dione]	87
Cc1cc(C(=O)N2CCN(C3CCN(C)CC3)CC2)ccc1CCS(=O)(=O)N1CCC2(CC1)N=C(c1cccc(C(F)(F)F)c1)NC2=O [Compound 958]	49
Cc1cc(C(=O)N2CC[C@@H](F)C2)cc(C)c1/C=C/S(=O)(=O)N1CCC2(CC1)N=C(c1cccc(OC(F)(F)F)c1)NC2=O [Compound 959, 8-{(E)-2-[4-((R)-3-Fluoro-pyrrolidine-1-carbonyl)-2,6-dimethyl-phenyl]-ethenesulfonyl}-2-(3-trifluoromethoxy-phenyl)-1,3,8-triaza-spiro[4.5]dec-1-en-4-one]	77
Cc1cc(C(=O)N2CCC(CO)CC2)cc(C)c1/C=C/S(=O)(=O)N1CCC2(CC1)N=C(c1cccc(OC(F)(F)F)c1)NC2=O [Compound 960, 8-{(E)-2-[4-(4-hydroxymethyl-piperidine-1-carbonyl)-2,6-dimethyl-phenyl]-ethenesulfonyl}-2-(3-trifluoromethoxy-phenyl)-1,3,8-triaza-spiro[4.5]dec-1-en-4-one]	84
Cc1cc(C(=O)N(C)C)cc(C)c1/C=C/S(=O)(=O)N1CCC2(CC1)N=C(c1cccc(OC(F)(F)F)c1)NC2=O [Compound 961, 3,5,N,N-tetramethyl-4-{(E)-2-[4-oxo-2-(3-trifluoromethoxy-phenyl)-1,3,8-triaza-spiro[4.5]dec-1-ene-8-sulfonyl]-vinyl}-benzamide]	92
Cc1cc(C(N)=O)cc(C)c1/C=C/S(=O)(=O)N1CCC2(CC1)N=C(c1cccc(OC(F)(F)F)c1)NC2=O [Compound 962, 3,5-dimethyl-4-{(E)-2-[4-oxo-2-(3-trifluoromethoxy-phenyl)-1,3,8-triaza-spiro[4.5]dec-1-ene-8-sulfonyl]-vinyl}-benzamide]	86
Cc1cc(C(=O)N2CC(F)C2)cc(C)c1/C=C/S(=O)(=O)N1CCC2(CC1)N=C(c1cccc(OC(F)(F)F)c1)NC2=O [Compound 963, 8-{(E)-2-[4-(3-Fluoro-azetidine-1-carbonyl)-2,6-dimethyl-phenyl]-ethenesulfonyl}-2-(3-trifluoromethoxy-phenyl)-1,3,8-triaza-spiro[4.5]dec-1-en-4-one]	16
Cc1cc(C(=O)N2CCC(O)CC2)cc(C)c1CCS(=O)(=O)N1CCC2(CC1)N=C(c1cccc(OC(F)(F)F)c1)NC2=O [Compound 964, 8-{2-[4-(4-Hydroxy-piperidine-1-carbonyl)-2,6-dimethyl-phenyl]-ethanesulfonyl}-2-(3-trifluoromethoxy-phenyl)-1,3,8-triaza-spiro[4.5]dec-1-en-4-one]	119
Cc1cc(C(=O)N2CC(O)C2)cc(C)c1CCS(=O)(=O)N1CCC2(CC1)N=C(c1cccc(OC(F)(F)F)c1)NC2=O [Compound 965, 8-{2-[4-(3-hydroxy-azetidine-1-carbonyl)-2,6-dimethyl-phenyl]-ethanesulfonyl}-2-(3-trifluoromethoxy-phenyl)-1,3,8-triaza-spiro[4.5]dec-1-en-4-one]	115
Cc1cc(C(=O)N2CCC(CO)CC2)cc(C)c1CCS(=O)(=O)N1CCC2(CC1)N=C(c1cccc(OC(F)(F)F)c1)NC2=O [Compound 966, 8-{2-[4-(4-hydroxymethyl-piperidine-1-carbonyl)-2,6-dimethyl-phenyl]-ethanesulfonyl}-2-(3-trifluoromethoxy-phenyl)-1,3,8-triaza-spiro[4.5]dec-1-en-4-one]	82
Cc1cc(C(=O)N2CC3(COC3)C2)cc(C)c1/C=C/S(=O)(=O)N1CCC2(CC1)N=C(c1ccc(F)c(C(F)(F)F)c1)NC2=O [Compound 967, 8-{(E)-2-[2,6-Dimethyl-4-(2-oxa-6-aza-spiro[3.3]heptane-6-carbonyl)-phenyl]-ethenesulfonyl}-2-(4-fluoro-3-trifluoromethyl-phenyl)-1,3,8-triaza-spiro[4.5]dec-1-en-4-one]	44
Cc1cc(C(=O)N2CCNC(=O)C2)cc(C)c1/C=C/S(=O)(=O)N1CCC2(CC1)N=C(c1ccc(F)c(C(F)(F)F)c1)NC2=O [Compound 968, 8-{(E)-2-[2,6-Dimethyl-4-(3-oxo-piperazine-1-carbonyl)-phenyl]-ethenesulfonyl}-2-(4-fluoro-3-trifluoromethyl-phenyl)-1,3,8-triaza-spiro[4.5]dec-1-en-4-one]	69
Cc1cc(C(=O)N2C[C@@H](C)N[C@@H](C)C2)cc(C)c1/C=C/S(=O)(=O)N1CCC2(CC1)N=C(c1ccc(F)c(C(F)(F)F)c1)NC2=O [Compound 969, 8-{(E)-2-[4-((3R,5S)-3,5-dimethyl-piperazine-1-carbonyl)-2,6-dimethyl-phenyl]-ethenesulfonyl}-2-(4-fluoro-3-trifluoromethyl-phenyl)-1,3,8-triaza-spiro[4.5]dec-1-en-4-one]	45
Cc1cc(C(=O)N2CC(C)(O)C2)cc(C)c1/C=C/S(=O)(=O)N1CCC2(CC1)N=C(c1ccc(F)c(C(F)(F)F)c1)NC2=O [Compound 970, 2-(4-fluoro-3-trifluoromethyl-phenyl)-8-{(E)-2-[4-(3-hydroxy-3-methyl-azetidine-1-carbonyl)-2,6-dimethyl-phenyl]-ethenesulfonyl}-1,3,8-triaza-spiro[4.5]dec-1-en-4-one]	112
Cc1cc(C(=O)N2CCC(O)(CO)CC2)cc(C)c1/C=C/S(=O)(=O)N1CCC2(CC1)N=C(c1ccc(F)c(C(F)(F)F)c1)NC2=O [Compound 971, 2-(4-fluoro-3-trifluoromethyl-phenyl)-8-{(E)-2-[4-(4-hydroxy-4-hydroxymethyl-piperidine-1-carbonyl)-2,6-dimethyl-phenyl]-ethenesulfonyl}-1,3,8-triaza-spiro[4.5]dec-1-en-4-one]	83
Cc1cc(C(=O)N2CCC(O)(CF)CC2)ccc1CCS(=O)(=O)N1CCC2(CC1)N=C([C@H]1CC[C@H](CC=C(F)F)CC1)NC2=O [Compound 974, 2-[4-(3,3-difluoro-allyl)-cyclohexyl]-8-{2-[4-(4-fluoromethyl-4-hydroxy-piperidine-1-carbonyl)-2-methyl-phenyl]-ethanesulfonyl}-1,3,8-triaza-spiro[4.5]dec-1-en-4-one]	111
CCC1CCC(C2=NC3(CCN(S(=O)(=O)CCc4ccc(C(=O)N5CCN(CCF)CC5)cc4C)CC3)C(=O)N2)CC1 (centres unmarked) [Compound 975, 2-(4-Ethyl-cyclohexyl)-8-(2-{4-[4-(2-fluoro-ethyl)-piperazine-1-carbonyl]-2-methyl-phenyl}-ethanesulfonyl)-1,3,8-triaza-spiro[4.5]dec-1-en-4-one]	74
CCC1CCC(C2=NC3(CCN(S(=O)(=O)CCc4ccc(C(=O)N5CCN(C6COC6)CC5)cc4C)CC3)C(=O)N2)CC1 (centres unmarked) [Compound 976, 2-(4-ethyl-cyclohexyl)-8-{2-[2-methyl-4-(4-oxetan-3-yl-piperazine-1-carbonyl)-phenyl]-ethanesulfonyl}-1,3,8-triaza-spiro[4.5]dec-1-en-4-one]	73
CCCCCCCCCC1=NC2(CCN(S(=O)(=O)CCc3ccc(C(=O)N4CCCC4)cc3C)CC2)C(=O)N1 [Compound 977, 8-{2-[2-Methyl-4-(pyrrolidine-1-carbonyl)-phenyl]-ethanesulfonyl}-2-nonyl-1,3,8-triaza-spiro[4.5]dec-1-en-4-one]	80
CCCCCCCCCC1=NC2(CCN(S(=O)(=O)CCc3ccc(C(=O)N4CCC4)cc3C)CC2)C(=O)N1 [Compound 978, 8-{2-[4-(azetidine-1-carbonyl)-2-methyl-phenyl]-ethanesulfonyl}-2-nonyl-1,3,8-triaza-spiro[4.5]dec-1-en-4-one]	91
